Our source for the IC50 values is patent US11173145B2, “Compounds useful as inhibitors of indoleamine 2,3-dioxygenase and/or tryptophan dioxygenase” (Board of Regents, The University of Texas System, priority 2017, dated 2021).

The target in one test is T1, mouse IDO1 (Mus musculus, UniProt P28776).
T1 construct: The murine PANC02 pancreatic ductal adenocarcinoma cell line was routinely maintained in DMEM media; endogenous in cells; host or cells: PANC02 murine pancreatic ductal adenocarcinoma cells, induced with mouse IFNgamma
T1 sequence (P28776 whole entry): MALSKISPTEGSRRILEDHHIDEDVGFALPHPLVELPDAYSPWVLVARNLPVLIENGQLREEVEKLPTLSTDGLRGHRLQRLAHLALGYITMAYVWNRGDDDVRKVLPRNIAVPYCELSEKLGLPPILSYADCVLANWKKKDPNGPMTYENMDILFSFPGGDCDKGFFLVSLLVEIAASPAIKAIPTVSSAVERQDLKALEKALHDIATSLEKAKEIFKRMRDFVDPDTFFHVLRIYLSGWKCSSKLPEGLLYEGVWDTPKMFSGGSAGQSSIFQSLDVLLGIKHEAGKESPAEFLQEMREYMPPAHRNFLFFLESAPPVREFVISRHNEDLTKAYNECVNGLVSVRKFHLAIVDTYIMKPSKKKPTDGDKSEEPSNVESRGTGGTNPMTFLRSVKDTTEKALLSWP
The test is described as follows: Mouse IDO1 cell-based assay (PANC02 cells, mouse IFNgamma-induced, N-formylkynurenine/L-tryptophan by RFMS). Particulars: 30 ng/mL mouse IFNgamma, 48 hours. The protocol: The murine PANC02 pancreatic ductal adenocarcinoma cell line was routinely maintained in DMEM media containing 10% FBS. Cells (3,000/well) were seeded onto a 384 well plate in 50 μl of media and incubated at 37° C., 5% CO2 overnight. Cell media was aspirated, fresh media containing 30 ng/mL mouse IFNgamma (Gibco Life Technologies, cat #PMC4031) was added, and cells were incubated in absence or presence of various concentrations of compounds (final 0.5% DMSO) for 48 hours at 37° C., 5% CO2. Aliquots of the cell conditioned media was removed from the cell plate, and mixed with equal volume of 200 mM ZnSO4 to precipitate media containing protein. Two volumes of acetonitrile were added by mixing, and samples were then centrifuged at 2250G for 20 minutes at 4° C. Aliquots of the supernatant were diluted 1:10 in 0.1% formic acid containing 3 μM of deuterated Tryptophan as an internal standard.
Samples were analyzed via RFMS to quantify N-Formyl Kynurenine (AUC) and L-tryptophan (AUC). A C18 cartridge was used with mobile phases of 0.1% Formic Acid and 80% ACN/0.1% Formic Acid under isocratic conditions. Dose-response curves were analyzed using IC50 regression curve fitting (GeneData Screener). Curves were plotted as percent of control and normalized by high controls without inhibitor (100%), and low controls (0%) containing 1 μM of epacadostat. Cell viability was also assessed using the Cell Titer Glo Kit (Promega) following manufacture recommendation.

The next test has as its target T2, IDO1 (Homo sapiens, UniProt P14902).
T2 construct: endogenous in cells; host or cells: HeLa cells (ATCC), IFNgamma-induced
The test is described as follows: IDO1 cell-based assay (HeLa cells, IFNgamma-induced, N-formylkynurenine/L-tryptophan by RFMS). Particulars: 10 ng/mL IFNgamma, 24 hours. The method, boiled down:
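HeLa cells stimulated with 10 ng/mL IFNgamma and exposed to compound (0.5% DMSO final) for 24 h at 37 °C. Conditioned media deproteinized, then N-formylkynurenine and L-tryptophan quantified by RapidFire MS with deuterated tryptophan internal standard; IC50 by curve fitting. Viability checked by CellTiter-Glo.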

Where only a bound is given, the exact number is not on record here.

The term IC50 denotes the concentration that gives 50% inhibition. Read a low IC50 as greater potency.

T2 sequence (P14902 whole entry): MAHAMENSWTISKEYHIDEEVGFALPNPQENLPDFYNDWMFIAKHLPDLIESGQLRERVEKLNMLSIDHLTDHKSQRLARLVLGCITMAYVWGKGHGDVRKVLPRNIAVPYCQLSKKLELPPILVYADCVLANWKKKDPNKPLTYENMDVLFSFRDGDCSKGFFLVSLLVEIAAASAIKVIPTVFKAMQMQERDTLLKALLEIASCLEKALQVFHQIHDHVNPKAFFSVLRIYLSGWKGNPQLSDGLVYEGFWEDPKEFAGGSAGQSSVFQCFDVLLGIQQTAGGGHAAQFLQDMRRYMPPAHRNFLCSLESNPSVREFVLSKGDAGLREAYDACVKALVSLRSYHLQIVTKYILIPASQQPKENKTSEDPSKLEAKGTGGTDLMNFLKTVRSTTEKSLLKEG

On to `CCC(NC(=O)c1ccc(Cl)cc1)[C@H]1[C@@H]2C[C@@H](n3nc4cc(F)cc(F)c4n3)C[C@@H]21` (stereo partly drawn) [Compound 213, 4-chloro-N-(1-((1R,3s,5S,6r)-3-(4,6-difluoro-2H-benzo[d][1,2,3]triazol-2-yl)bicyclo[3.1.0]hexan-6-yl)propyl)benzamide], for which the IC50 at mouse IDO1 was 500 to 2000 nM; against IDO1 it was less than 200 nM.
In the same order, the values of `CCC(NC(=O)c1ccc(Cl)cc1)[C@H]1[C@@H]2C[C@@H](n3ncc(-c4ccccc4)n3)C[C@@H]21` (stereo partly drawn) [Compound 204, 4-chloro-N-(1-((1R,3s,5S,6r)-3-(4-phenyl-2H-1,2,3-triazol-2-yl)bicyclo[3.1.0]hexan-6-yl)propyl)benzamide] are 500 to 2000 nM and less than 200 nM.
In the case of `CCC(NC(=O)c1ccc(Cl)cc1)[C@H]1[C@@H]2C[C@@H](n3cc(C4CN(C(C)=O)C4)nn3)C[C@@H]21` (stereo partly drawn) [Compound 257, N-(1-((1R,3s,5S,6r)-3-(4-(1-acetylazetidin-3-yl)-1H-1,2,3-triazol-1-yl)bicyclo[3.1.0]hexan-6-yl)propyl)-4-chlorobenzamide], the 50% inhibitory concentration (IC50) against mouse IDO1 and at IDO1 was greater than 5000 nM throughout.
For `CCC(NC(=O)c1ccc(Cl)cc1)[C@H]1[C@@H]2C[C@@H](C(C(=O)OC)c3ccccc3)C[C@@H]21` (mixture of isomers) [Compound 202, methyl (S)-2-((1R,3S,5S, 6S)-6-((R)-1-(4-chlorobenzamido)propyl)bicyclo[3.1.0]hexan-3-yl)-2-phenylacetate and methyl (R)-2-((R, 3S, 5S, 6S)-6-((S)-1-(4-chlorobenzamido)propyl)bicyclo[3.1.0]hexan-3-yl)-2-phenylacetate], the IC50 lay within 500 to 2000 nM at mouse IDO1 and 200 to 2000 nM at IDO1.
In the same order, the values of `CCC(NC(=O)c1ccc(Cl)cc1)[C@H]1[C@@H]2C[C@@H](n3ncc4cc(F)ccc43)C[C@@H]21` (stereo partly drawn) [Compound 208, 4-chloro-N-(1-((1R,3s,5S,6r)-3-(5-fluoro-1H-indazol-1-yl)bicyclo[3.1.0]hexan-6-yl)propyl)benzamide] are less than 500 nM and less than 200 nM.
Taken in the same sequence, the figures for `CCC(NC(=O)c1ccc(Cl)cc1)[C@H]1[C@@H]2C[C@@H](C(C#N)c3ccccc3)C[C@@H]21` (stereo partly drawn) [Compound 166, 4-chloro-N-(1-((1R,3s,5 S,6r)-3-(cyano(phenyl)methyl)bicyclo[3.1.0]hexan-6-yl)propyl) benzamide] were less than 500 nM and less than 200 nM.
In the same order, the values of `CCC(NC(=O)c1ccc(Cl)cc1)[C@@H]1[C@H]2C=C(c3cncc(C(F)(F)F)c3)C[C@H]21` (stereo partly drawn) [Compound 254, 4-chloro-N-(1-((1R,5R,6S)-3-(5-(trifluoromethyl)pyridin-3-yl)bicyclo[3.1.0]hex-2-en-6-yl)propyl)benzamide] are less than 500 nM and less than 200 nM.
With `CCC(NC(=O)c1ccc(Cl)cc1)[C@H]1[C@@H]2C[C@@H](NC(=O)c3ccc(OC)cn3)C[C@@H]21` (stereo partly drawn) [Compound 164, N-((1R,3s,5S,6r)-6-(1-(4-chlorobenzamido)propyl)bicyclo[3.1.0]hexan-3-yl)-5-methoxypicolinamide], the IC50 against mouse IDO1 lay in the range of 500 to 2000 nM; at IDO1 it was 200 to 2000 nM.
Consider `CCC(NC(=O)c1ccc(Cl)cc1)[C@H]1[C@@H]2C[C@@H](n3cc4cccc(F)c4n3)C[C@@H]21` (stereo partly drawn) [Compound 205, 4-chloro-N-(1-((1R,3s,5S,6r)-3-(7-fluoro-2H-indazol-2-yl)bicyclo[3.1.0]hexan-6-yl)propyl)benzamide], for which the IC50 is less than 500 nM against mouse IDO1 and less than 200 nM at IDO1.
In the same order, the values of `C[C@@H](NC(=O)c1ccc(C#N)cc1)[C@H]1[C@@H]2C[C@@H](Oc3ncnc4ccc(F)cc34)C[C@@H]21` [Compound 131, 4-cyano-N-((S)-1-((1R,3R,5S,6r)-3-((6-fluoroquinazolin-4-yl)oxy)bicyclo[3.1.0]hexan-6-yl)ethyl)benzamide] are 500 to 2000 nM and less than 200 nM.
In the same order, the values of `CCC(NC(=O)c1ccc(Cl)cc1)[C@H]1[C@@H]2C[C@@H](C(C(=O)OC)c3ccccc3)C[C@@H]21` (mixture of isomers) [Compound 203, methyl (S)-2-((R, 3R, 5S,6S)-6-((S)-1-(4-chlorobenzamido)propyl)bicyclo[3.1.0]hexan-3-yl)-2-phenylacetate and methyl (R)-2-((1R,3R,5S, 6S)-6-((R)-1-(4-chlorobenzamido)propyl)bicyclo[3.1.0]hexan-3-yl)-2-phenylacetate] are less than 500 nM and 200 to 2000 nM.
Taken in the same sequence, the figures for `CCC(NC(=O)c1ccc(Cl)cc1)[C@H]1[C@@H]2C[C@@H](n3c(=O)[nH]c4cc(F)ccc43)C[C@@H]21` (stereo partly drawn) [Compound 192, 4-chloro-N-(1-((1R,3s,5S,6r)-3-(5-fluoro-2-oxo-2,3-dihydro-1H-benzo[d]imidazol-1-yl)bicyclo[3.1.0]hexan-6-yl)propyl)benzamide] were 500 to 2000 nM and 200 to 2000 nM.
For `CCC(NC(=O)c1ccc(Cl)cc1)[C@H]1[C@@H]2C[C@@H](n3c(=O)n(C)c4ccccc43)C[C@@H]21` (stereo partly drawn) [Compound 181, 4-chloro-N-(1-((1R,3s,5S,6r)-3-(3-methyl-2-oxo-2,3-dihydro-1H-benzo[d]imidazol-1-yl)bicyclo[3.1.0]hexan-6-yl)propyl)benzamide], the IC50 against mouse IDO1 is less than 500 nM; on IDO1, less than 200 nM.
Taken in the same sequence, the figures for `CCC(NC(=O)c1ccc(Cl)cc1)[C@H]1[C@@H]2C[C@@H](n3nc4ccc(Br)cc4n3)C[C@@H]21` (stereo partly drawn) [Compound 179, N-(1-((1R,3s,5S,6r)-3-(5-bromo-2H-benzo[d][1,2,3]triazol-2-yl)bicyclo[3.1.0]hexan-6-yl)propyl)-4-chlorobenzamide] were 2000 to 5000 nM and less than 200 nM.
As for `CCC(NC(=O)c1ccc(Cl)cc1)[C@H]1[C@@H]2C[C@@H](Nc3ccccn3)C[C@@H]21` (stereo partly drawn) [Compound 226, 4-chloro-N-(1-((1R,3s,5S,6r)-3-(pyridin-2-ylamino)bicyclo[3.1.0]hexan-6-yl)propyl)benzamide], the results for the IC50 on mouse IDO1 and on IDO1 were less than 500 nM and less than 200 nM, respectively.
Taken in the same sequence, the figures for `CCC(NC(=O)c1ccc(Cl)cc1)[C@H]1[C@@H]2C[C@H](n3cc(CO)nn3)C[C@@H]21` (stereo partly drawn) [Compound 187, 4-chloro-N-(1-((1R,3r,5S,6r)-3-(4-(hydroxymethyl)-1H-1,2,3-triazol-1-yl)bicyclo[3.1.0]hexan-6-yl)propyl)benzamide] were 2000 to 5000 nM and 200 to 2000 nM.
Taken in the same sequence, the figures for `O=C(Nc1ccc(Cl)cc1)[C@@H]1[C@@H]2CN(c3ncnc4ccc(F)cc34)C[C@@H]21` [Compound 250, (1R,5S,6s)-N-(4-chlorophenyl)-3-(6-fluoroquinazolin-4-yl)-3-azabicyclo[3.1.0]hexane-6-carboxamide] were greater than 5000 nM and greater than 5000 nM.
Taken in the same sequence, the figures for `CCC(NC(=O)c1ccc(Cl)cc1)[C@H]1[C@@H]2C[C@@H](n3cc(C4CNC4)nn3)C[C@@H]21` (stereo partly drawn) [Compound 237, N-(1-((1R,3s,5S,6r)-3-(4-(azetidin-3-yl)-1H-1,2,3-triazol-1-yl)bicyclo[3.1.0]hexan-6-yl)propyl)-4-chlorobenzamide] were greater than 5000 nM and greater than 5000 nM.
As for `CCC(NC(=O)c1ccc(Cl)cc1)[C@H]1[C@@H]2C[C@@H](NC(=O)c3nccc(C(F)(F)F)c3Cl)C[C@@H]21` (stereo partly drawn) [Compound 158, 3-chloro-N-((1R,3s,5S,6r)-6-(1-(4-chlorobenzamido)propyl)bicyclo[3.1.0]hexan-3-yl)-4-(trifluoromethyl)picolinamide], the IC50 against mouse IDO1 is 500 to 2000 nM; against IDO1, less than 200 nM.
Taken in the same sequence, the figures for `CCOCc1cn([C@H]2C[C@@H]3[C@H](C2)[C@H]3C(CC)NC(=O)c2ccc(Cl)cc2)nn1` (stereo partly drawn) [Compound 216, 4-chloro-N-(1-((1R,3r,5S,6r)-3-(4-(ethoxymethyl)-1H-1,2,3-triazol-1-yl)bicyclo[3.1.0]hexan-6-yl)propyl)benzamide] were less than 500 nM and less than 200 nM.
Taken in the same sequence, the figures for `CCC(NC(=O)c1ccc(Cl)cc1)[C@H]1[C@@H]2C[C@@H](NC(=O)c3cccnc3C)C[C@@H]21` (stereo partly drawn) [Compound 223, N-((1R,3s,5S,6r)-6-(1-(4-chlorobenzamido)propyl)bicyclo[3.1.0]hexan-3-yl)-2-methylnicotinamide] were greater than 5000 nM and less than 200 nM.
In the same order, the values of `CCC(NC(=O)c1ccc(Cl)cc1)[C@H]1[C@@H]2C[C@H](n3cc(COC)nn3)C[C@@H]21` (stereo partly drawn) [Compound 214, 4-chloro-N-(1-((1R,3r,5S,6r)-3-(4-(methoxymethyl)-1H-1,2,3-triazol-1-yl)bicyclo[3.1.0]hexan-6-yl)propyl)benzamide] are less than 500 nM and less than 200 nM.
